≈ marks a conversion by molar mass, not a printed value. Where “and” joins values, the source holds several entries; their conditions need not be identical. Equal values may be shown once.
What was measured:
UV absorbance scan = type: physicochemical; settings: 1,000 μg/ml, quartz cell
Experimental: A UV absorbance scan was performed on mangiferin extract at a concentration of 1,000 μg/ml, and the results are shown in FIG. 6. The spectrometer was set up using a quartz cell with a 1.05 ms integration time (the minimum for the spectrometer) and the spectra was based on an average of 100 samples.
UV absorbance scans were performed on stock solutions of the mangiferin-complexes prepared in example 8 above and the results are shown in FIG. 7. The spectrometer was set up using a quartz cell with a 1.05 ms integration time (the minimum for the spectrometer) and the spectra was based on an average of 100 samples. The mangiferin-only solution required to be diluted to 25% of its original concentration to reach the point at which it no longer saturated the spectrometer, while mangiferin-complex solutions were diluted to 2.5%. However, good absorbance was then observed for all of the samples, with the characteristic peaks at ^˜320 nm and ^˜370 nm clearly visible.

HDFn cells [1] = assay: mtDNA damage after UV irradiation (1 kb real-time qPCR assay); type: cell-based, human; settings: UV 2 SED
Experimental: 1,000 μg/ml solutions of mangiferin extract were prepared as outlined in Example 1 above. 3 ml of the mangiferin solution was added to a 45 mm diameter quartz glass petri dish. Quartz was chosen as it is known to permit both UVA and UVB rays to pass through. The quartz glass dish was then placed on top of a slightly smaller dish containing the cultured HDFn cells. The cells were then irradiated through the quartz glass petri dish, using either a Cleo Performance (iSOLde, Germany) or Aramid B (Cosmedico, Germany) lamp at 2 standard erythemal doses (SED). […]
Following irradiation, total DNA was extracted and mtDNA damage analysed using a 1 kb real-time qPCR assay. mtDNA damage is expressed as a Ct value (where a 1 Ct difference is equivalent to a 2-fold difference in damage), and is based on the observation that damaged mtDNA takes longer to be amplified via qPCR. To find the acellular UV transmission of extracts, the dish containing the diluted extract was placed on top of a spectroradiometer and the amount of UV which passes through the dish was measured. All statistical differences were determined using one-way ANOVA with Dunnett's test to compare to a control column (0.05*, P<0.01**, P<0.001***). […]

[2] = Solubility of mangiferin in deionised water; type: physicochemical
Experimental: In order to assess the solubility of mangiferin in aqueous solution, 0.18 g of mangiferin was added to 100 mls of deionised water. […] The solution was then Buchner filtered, and the mass of the undissolved material weighed. Solubility was calculated based on the difference between the initial mass of mangiferin and that of the undissolved material.

HDFn cells [3] = assay: Cell viability assay (MTS cell proliferation assay); type: cell-based; settings: unfiltered extract, 50 to 50,000 μg/ml, 24 hours incubation
Experimental: Stock solutions of mangiferin were made by dissolving mangiferin extract in water, and diluting to the required concentration. The stock solutions were then added to HDFn cells at a range of concentrations from 50 μg/ml to 50,000 μg/ml, and incubated for 24 hours under standard culture conditions.

Question: Which UV absorbance peaks (UV absorbance scan) does the source give for `O=c1c2cc(O)c(O)cc2oc2cc(O)c(C3OC(CO)C(O)C(O)C3O)c(O)c12` (stereo not shown) [mangiferin, 1,3,6,7-tetrahydroxy-2-[3,4,5-trihydroxy-6-(hydroxymethyl)oxan-2-yl]xanthen-9-one] here?
Answer: ~320 nm and ~370 nm

Question: And the “increase in mtDNA damage compared with foil-wrapped (non-irradiated) samples” value (HDFn cells [1]; 1,000 μg/ml solution in quartz dish above cells, water control 3.1 Cts)?
Answer: 1.6 Cts

Question: And the “fold increase in mtDNA damage compared with foil-wrapped samples” value (HDFn cells [1]; 1,000 μg/ml, 1 Ct = 2-fold, water control approximately 8-fold)?
Answer: approximately 3 fold

Question: What about the “solubility in water (in words)” value ([2]; even after stirring for 24 hours) of the same compound?
Answer: very insoluble in water

Question: What about the solubility at 4 h ([2]; thermodynamic from solid, deionised water, 40° C., 500 rpm, stirring time 4 hours) of the same compound?
Answer: 43 µg/mL (≈ 102 µM)

Question: What about the solubility at 24 h ([2]; thermodynamic from solid, deionised water, 40° C., 500 rpm, stirring time 24 hours) of the same compound?
Answer: 139 µg/mL (≈ 329 µM)

Question: And the “concentration up to which cell viability is seen (cell death above)” value (HDFn cells [3])?
Answer: ~5,000 μg/ml
